Data published in US12678440B2, “Compositions and methods for treating misfolded protein ocular disorders” (CASE WESTERN RESERVE UNIVERSITY, priority 2020, dated 2026).

How the values were obtained:
[1] = system: WT mouse rhodopsin fused with Renilla luciferase (Rluc); assay: Rluc reporter counter screen in Hek293 (RHO^WT-Rluc) cells; format: cell-based; conditions: for Efficacy, Rluc assay Hek293 (RHO^WT − Rluc): 24 h, DMSO 0%, Evans Blue −100% controls; for EC50: 24 h compound treatment, dose-response, triplicate
Description: Two Hek293 stable cell lines, Hek293 (RHO^WT-Rluc) and Hek293 (RHO^P23H-Rluc) cells were generated which stably express the WT and P23H mutant mouse rhodopsin each fused with a Renilla luciferase (Rluc) for the luciferase reporter assay as previously described. Briefly, the Hek 293 cells (ATCC, Manassas, VA, USA) were transfected with the pcDNA3.1 Zeo containing the cDNA of mouse WT or P23H rhodopsin fused with a Rluc 8 (a gift from Dr. Navine Lambert at Augusta University, Augusta, GA USA) and transfected cells were incubated in Dulbecco's modified Eagle's medium (DMEM, Genesee Scientific, E1 Cajon, CA USA) with 10% fetal bovine serum (FBS, Gibco Laboratories, Gaithersburg, MD USA) for 48 h before addition of 400 μg/mL of Zeocin (InvivoGen, San Diego, CA USA) for positive clone selection. Colonies of cells survived from 1 week of Zeocin selection were collected, and expression of WT and P23H rhodopsin were confirmed by a luciferase assay and immunoblotting of rhodopsin with positive bands of monomers at about 70 kD (FIG. 8). The difference of molecular masses between WT and P23H rhodopsin proteins was due to differences in glycosylation, which was also seen in the NIH3T3 cells expressing the WT and P23H rhodopsin proteins.
The HTS was performed at three facilities, including University of Cincinnati (UC), Case Western Reserve University, and National Center for Advancing Translational Sciences (NCATS), testing a total of six compound collections. These compound collections include: 1) the UC 10K Diversity Set (10,011 compounds), 2) the Life Chemicals 50K Collection (50,560), 3) the Spectrum Collection (2,400 compounds), 4) the LOPAC collection (1,280 compounds), 5) the FDA collection (2,816 compounds), and 6) the NCATS MIPE collection (1,912 compounds). […] For the compound collections 1), 2) and 3), we firstly tested each compound using the P23H rhodopsin luciferase reporter assay at a single dose for once (9.93 to 16.13 μM) in 384-well format, and we identified 2072 compounds with activity scores lower than the cutoff at mean-2SD. Activity scores were normalized using DMSO treated cells as 0% control and the 1 mM Evans Blue treated cells as −100% control. From these hit compounds, we excluded those reported with luciferase inhibitor activities and cherry-picked the rest for hit confirmation. Each hit was tested at 10 μM in the Hek293 (RHO^P23H-Rluc) cells again by the luciferase reporter assay in triplicates, and the confirmed hits with activity scores lower than-50% were then counter screened for their effects on Rluc activity by the recombinant Rluc activity assay, and on WT rhodopsin level by the luciferase reporter assay in the Hek293 (RHO^WT-Rluc) cells at 10 μM in triplicates, respectively. […] Next, we tested the dose responses of these confirmed hits in both the Hek293 (RHO^P23H-Rluc) and the Hek293 (RHO^WT-Rluc) cells and identified compounds that selectively favored the clearance of P23H than WT rhodopsin in a dose-dependent manner (Table 4). For the compound collections 4)-6), we tested each compound directly at 7 or 11 doses using the luciferase reporter assay in the Hek293 (RHO^P23H-Rluc) cells in 1536-well format, and identified 128 compounds with efficacy smaller than-50% and EC50<20 μM.
The Rluc reporter assay has been described before. HTS was undertaken in 384-well format for the UC 10K Diversity Set, Spectrum Collection and the Life Chemicals 50K diversity set, and in 1536-well format for the FDA, LOPAC, and MIPE collections. Using the 384-well format as an example, Hek (RHO^P23H-Rluc) cells were seeded in 384-well white-wall clear-bottom plates (assay plates) at 3×10^5/mL for 40 μL/well by an 8-channel Multiflo liquid dispenser (Bioteck, Winooski, VT USA). The assay plates were centrifuged at 300×g for 30 s and cultured at 37° C. with 5% CO2 overnight. […]

RHO transcripts = assay: qPCR of RHO transcripts in NIH3T3 (RHO^P23H/GFP) and NIH3T3 (RHO^WT/GFP) cells; format: cell-based; conditions: 10 μM, 24 h; for WT and P23H rhodopsin transcripts in comparison to DMSO control: both cell lines; for Rho mRNA level (qPCR): vs DMSO
Method: NIH3T3 (RHO^WT/GFP) and NIH3T3 (RHO^P23H/GFP) cells were seeded in the 24-well plates at a density of 2.5×10^5 cells/well and cultured at 37° C. with 5% CO2 for overnight. Cells were then incubated with the culture medium containing compounds for 24 h. After aspirating the medium, cells were collected and lysed in 300 μL/well of TRIzol (ThermoFisher, 15596026, Waltham, MA USA) for 5 min. Samples were vigorously mixed with 60 μL chloroform for 30 s, then centrifuged at 12,000×g for 15 min at 4° C. The upper aqueous phase containing RNA was taken out and mixed with 150 μL isopropanol by vigorous shaking. After sedation for 10 min, samples were centrifuged at 12,000×g for 10 min at 4° C. The pellets were washed with 300 μL 75% ethanol and centrifuged at 7,500×g at 4° C. for 5 min. The RNA pellets were air-dried for 15 min and dissolved in 30 μL nuclease-free water (FisherScientific, BP2484-100, Houston, TX USA). The yield and purity of RNA were assessed by a NanoDrop spectrometer. The cDNAs was generated from 1 μg RNA using a High-Capacity RNA-to-cDNA Kit (ThermoFisher, 4387406, Waltham, MA USA). qPCR amplifications were performed using the PowerUp SYBR Green Master Mix (ThermoFisher, A25741, Waltham, MA USA) with the cDNA templates and primers, and the reaction was controlled by a QuantStudio 3 thermocycler (ThermoFisher, Waltham, MA USA). Primer sequences are as follows: RHO, forward 5′-CCCTTCTCCAACGTCACAGG-3′ (SEQ ID NO: 1), reverse 5′-TGAGGAAGTTGATGGGGAAGC-3′ (SEQ ID NO: 2); β-actin, forward 5′-ACCTTCTACAATGAGCTGCG-3′ (SEQ ID NO: 3), reverse 5′-CTGGATGGCTACGTACATGG-3′ (SEQ ID NO: 4).

## CC(=O)OC(CC(=O)[O-])C[N+](C)(C)C (stereo not shown) [CL-001]
[1]
  Efficacy, Rluc assay Hek293 (RHO^WT − Rluc): −44.3%
  EC50: 1 µM
RHO transcripts
  WT and P23H rhodopsin transcripts in comparison to DMSO control: reduced non-selectively
  Rho mRNA level (qPCR): Down

## CC(=O)OC(CC(=O)O)C[N+](C)(C)C (stereo not shown) [CL-002]
[1]
  Efficacy, Rluc assay Hek293 (RHO^WT − Rluc): −62.0%
  EC50: 3.4 µM
RHO transcripts
  WT and P23H rhodopsin transcripts in comparison to DMSO control: reduced non-selectively
  Rho mRNA level (qPCR): Down

## O=C(O)C1=CC=CC(O)C1O (stereo not shown) [CL-003]
[1]
  Efficacy, Rluc assay Hek293 (RHO^WT − Rluc): −37.7%
  EC50: 1.5 µM
RHO transcripts
  WT and P23H rhodopsin transcripts in comparison to DMSO control: reduced non-selectively
  Rho mRNA level (qPCR): Down

## CC(O)CN (stereo not shown) [CL-004]
[1]
  Efficacy, Rluc assay Hek293 (RHO^WT − Rluc): −45.5%
  EC50: 0.92 µM
RHO transcripts
  WT and P23H rhodopsin transcripts in comparison to DMSO control: reduced non-selectively
  Rho mRNA level (qPCR): Down

## NCC(=O)COP(=O)(O)O [CL-005]
[1]
  Efficacy, Rluc assay Hek293 (RHO^WT − Rluc): −57.9%
  EC50: 4.2 µM
RHO transcripts; both NIH3T3 (RHO^P23H/GFP) and NIH3T3 (RHO^WT/GFP) cells
  increase of rhodopsin transcripts compared to DMSO control: up to 2 fold
RHO transcripts
  Rho mRNA level (qPCR): Up

## O=C(NC1CCNCC1)c1n[nH]cc1NC(=O)c1c(Cl)cccc1Cl [CL-006]
[1]
  Efficacy, Rluc assay Hek293 (RHO^WT − Rluc): −42.9%
  EC50: 1.52 µM
RHO transcripts
  WT and P23H rhodopsin transcripts in comparison to DMSO control: reduced non-selectively
  Rho mRNA level (qPCR): Down

## CCn1cnc2c(N)ncnc21 [CL-007]
[1]
  Efficacy, Rluc assay Hek293 (RHO^WT − Rluc): −51.7%
  EC50: 11 µM
RHO transcripts
  WT and P23H rhodopsin transcripts in comparison to DMSO control: reduced non-selectively
  Rho mRNA level (qPCR): Down

## CCC(C)(O)C(O)C(=O)O (stereo not shown) [CL-008]
[1]
  Efficacy, Rluc assay Hek293 (RHO^WT − Rluc): −52.7%
  EC50: 0.59 µM
RHO transcripts
  WT and P23H rhodopsin transcripts in comparison to DMSO control: reduced non-selectively
  Rho mRNA level (qPCR): Down

## CN(Cc1cnc2nc(N)nc(N)c2n1)c1ccc(C(=O)N[C@@H](CCC(=O)O)C(=O)O)cc1 [CL-009, N-[4-[[(2,4-diamino-6-pteridinyl)methyl]methylamino]benzoyl]-L-glutamic acid]
RHO transcripts
  WT and P23H rhodopsin transcripts in comparison to DMSO control: did not affect the transcription
  Rho mRNA level (qPCR): No Change
